In patent US20150164762A1, “USE OF ETHANOLAMINE PHOSPHATE” (priority 2012, published 2015):

Tested on: BEAS-2B
Assay: Comprehensive gene expression analysis with Whole Human Genome DNA microarray after EP treatment
Assay type: cell-based
Protocol: Cells of the established normal human airway epithelial cell line BEAS-2B were used in the experiment. These cells were expansively cultured in 10% FBS RPMI-1640, and seeded at a density of 1×10^5/cm^2 on a 24-well plate. After 24 hours 0.1% FBS RPMI-1640 was substituted, and EP was administered to a final concentration of 0 or 1 mM (n=4). After 24 hours, the cells were used as the DNA microarray samples. RNA was extracted using a QIAGEN RNeasy Mini Kit. The DNA microarray test was performed using a Whole Human Genome DNA microarray 4×44K (Agilent), and the necessary labeling reagents and the like for the DNA microarray test were all from Agilent. The DNA microarray test data were analyzed statistically with GeneSpring (Agilent) dedicated analysis software, and gene function analysis (Gene Ontology (GO) analysis) was performed based on differential expression. The purpose of the GO analysis is to determine stochastically the degree to which gene sets with statistically significant differential expression correspond to known functional classification gene sets. […] The p-value is calculated according to the following formula.

[1] = probe A_24_P215804, 1 mM EP, 24 h
[2] = probe A_24_P218265, 1 mM EP, 24 h
[3] = probe A_24_P226782, 1 mM EP, 24 h
[4] = probe A_24_P231104, 1 mM EP, 24 h
[5] = probe A_24_P261169, 1 mM EP, 24 h
[6] = probe A_24_P273157, 1 mM EP, 24 h
[7] = probe A_24_P295543, 1 mM EP, 24 h
[8] = probe A_24_P302833, 1 mM EP, 24 h
[9] = probe A_24_P307580, NM_001098523, EP vs control
[10] = probe A_24_P313354, 1 mM EP, 24 h
[11] = probe A_24_P313504, 1 mM EP, 24 h
[12] = probe A_24_P317708, NM_138969, EP vs control
[13] = probe A_24_P319113, 1 mM EP, 24 h
[14] = probe A_24_P319983, 1 mM EP, 24 h
[15] = probe A_24_P388659, 1 mM EP, 24 h
[16] = probe A_24_P389409, NM_006129, EP vs control
[17] = probe A_24_P389457, 1 mM EP, 24 h
[18] = probe A_24_P413470, 1 mM EP, 24 h
[19] = probe A_24_P722216, NM_018706, EP vs control
[20] = probe A_24_P839629, 1 mM EP, 24 h
[21] = probe A_24_P876522, NM_001008397, EP vs control
[22] = probe A_24_P914519, S67289, EP vs control
[23] = probe A_24_P928052, 1 mM EP, 24 h
[24] = probe A_24_P934477, AJ000096, EP vs control
[25] = probe A_24_P935986, 1 mM EP, 24 h
[26] = probe A_24_P937256, 1 mM EP, 24 h
[27] = probe A_24_P937317, NM_001014336, EP vs control
[28] = probe A_24_P3305312, 1 mM EP, 24 h
[29] = probe A_24_P9284523, 1 mM EP, 24 h
[30] = probe A_32_P45009, NM_005896, EP vs control
[31] = probe A_32_P75094, 1 mM EP, 24 h
[32] = probe A_32_P89691, NM_003104, EP vs control
[33] = probe A_32_P94798, 1 mM EP, 24 h
[34] = probe A_32_P171043, 1 mM EP, 24 h
[35] = probe A_32_P230808, 1 mM EP, 24 h

NCCOP(=O)(O)O [EP, Ethanolamine phosphate]
CKLF expression R*: Ratio to control [1]: 1.551 times
CKLF expression log2 [ratio] [1]: 0.633
TNFRSF10B expression R*: Ratio to control [2]: 0.475 times
TNFRSF10B expression log2 [ratio] [2]: −1.073
SOX7 expression R: Ratio to control [3]: 0.607 times
SOX7 expression log2 [ratio] [3]: −0.720
LEPR expression R*: Ratio to control [4]: 1.659 times
LEPR expression log2 [ratio] [4]: 0.730
SEMA4D expression R: Ratio to control [5]: 0.558 times
SEMA4D expression log2 [ratio] [5]: −0.842
OBSCN expression R: Ratio to control [6]: 0.654 times
OBSCN expression log2 [ratio] [6]: −0.613
BLOC1S2 expression R*: Ratio to control [7]: 0.384 times
BLOC1S2 expression log2 [ratio] [7]: −1.381
APPL1 expression R*: Ratio to control [8]: 1.723 times
APPL1 expression log2 [ratio] [8]: 0.785
HTATIP2 gene expression, R* ratio to control [9]: 1.821 times
HTATIP2 gene expression, log2 [ratio] [9]: 0.865
NR2F2 expression R*: Ratio to control [10]: 1.746 times
NR2F2 expression log2 [ratio] [10]: 0.804
PLK1 expression R*: Ratio to control [11]: 1.939 times
PLK1 expression log2 [ratio] [11]: 0.955
SDR16C5 gene expression, R* ratio to control [12]: 2.349 times
SDR16C5 gene expression, log2 [ratio] [12]: 1.232
P2RX7 expression R: Ratio to control [13]: 0.586 times
P2RX7 expression log2 [ratio] [13]: −0.772
BCL10 expression R*: Ratio to control [14]: 0.571 times
BCL10 expression log2 [ratio] [14]: −0.310
ARHGAP24 expression R*: Ratio to control [15]: 1.745 times
ARHGAP24 expression log2 [ratio] [15]: 0.803
BMP1 gene expression, R* ratio to control [16]: 0.650 times
BMP1 gene expression, log2 [ratio] [16]: −0.622
CDKN1A expression R*: Ratio to control [17]: 0.294 times
CDKN1A expression log2 [ratio] [17]: −1.768
TP73 expression R*: Ratio to control [18]: 0.482 times
TP73 expression log2 [ratio] [18]: −1.054
DHTKD1 gene expression, R* ratio to control [19]: 1.429 times
DHTKD1 gene expression, log2 [ratio] [19]: 0.515
ZMAT3 expression R*: Ratio to control [20]: 0.654 times
ZMAT3 expression log2 [ratio] [20]: −0.612
GPX8 gene expression, R* ratio to control [21]: 1.602 times
GPX8 gene expression, log2 [ratio] [21]: 0.680
CYBB gene expression, R* ratio to control [22]: 1.958 times
CYBB gene expression, log2 [ratio] [22]: 0.968
NRP1 expression R*: Ratio to control [23]: 1.990 times
NRP1 expression log2 [ratio] [23]: 0.993
CBR3 gene expression, R* ratio to control [24]: 2.429 times
CBR3 gene expression, log2 [ratio] [24]: 1.281
BCAT1 expression R*: Ratio to control [25]: 1.721 times
BCAT1 expression log2 [ratio] [25]: 0.783
RELA expression R*: Ratio to control [26]: 1.611 times
RELA expression log2 [ratio] [26]: 0.688
IL31 gene expression, R* ratio to control [27]: 0.296 times
IL31 gene expression, log2 [ratio] [27]: −1.758
BBC3 expression R*: Ratio to control [28]: 0.366 times
BBC3 expression log2 [ratio] [28]: −1.452
MAP3K10 expression R*: Ratio to control [29]: 0.570 times
MAP3K10 expression log2 [ratio] [29]: −0.810
IDH1 gene expression, R* ratio to control [30]: 1.486 times
IDH1 gene expression, log2 [ratio] [30]: 0.571
A1FM2 expression R*: Ratio to control [31]: 0.399 times
A1FM2 expression log2 [ratio] [31]: −1.327
SORD gene expression, R* ratio to control [32]: 1.506 times
SORD gene expression, log2 [ratio] [32]: 0.590
ANXA2 expression R*: Ratio to control [33]: 1.614 times
ANXA2 expression log2 [ratio] [33]: 0.691
CCBE1 expression R*: Ratio to control [34]: 1.890 times
CCBE1 expression log2 [ratio] [34]: 0.918
KNG1 expression R*: Ratio to control [35]: 0.358 times
KNG1 expression log2 [ratio] [35]: −1.484
FAS expression (probe A—23_P63896, 1 mM EP, 24 h): 0.36 fold
catalase (CAT) expression (probe A—23_P105138, 1 mM EP, 24 h): increased expression
NADPH:quinone reductase-1 (NQ01) expression (probe A—23_P206661, 1 mM EP, 24 h): increased expression
thioredoxin (TXN) expression increase (probe A—24_P175519, 1 mM EP, 24 h): 1.4 times
